Source: patent US5070210A, “Novel ketenimines as intermediates for insecticides” (ICI Americas Inc., priority 1990, dated 1991)

Experiments:
Format in all cases: in vivo
[1] = system: Cabbage Looper [Trichoplusia ni (Hubner)]; assay: Cabbage looper insecticidal test; conditions: second-instar larvae, percent in solution; 3-5 days
Summary of the method: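 Steps: dilute compound in 50-50 acetone-water from 0.1% downward; immerse cotyledon pieces 2-3 s and dry; place in humid petri dishes with five second-instar larvae; record mortality at 3-5 days. Dosage-mortality curves yield LC50 as percent in solution.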

[2] = system: Housefly [Musca domestica]; assay: Housefly insecticidal test; conditions: μg per 25 female flies; mortality after 48 hours
Summary of the method: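 Dose range started at 100 μg per 25 female flies and went downward. Insects (1-2 days old) contacted a dried acetone/peanut-oil deposit in dishes; LC50 values come from dosage-mortality curves at 48 h.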

[3] = system: Tobacco Budworm [Heliothis virescens (Fabricius)] eggs; assay: Tobacco budworm egg test; conditions: 2-day old eggs, percent in solution
Summary of the method: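 Mortality of dipped eggs served as read-out, recorded after untreated controls hatched and began feeding. Treatments used acetone solutions from 0.1% downward, with eggs incubated at 78° F; LC50 is expressed as percent of compound in the solution.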

[4] = system: Maize weevil [Sitophilus Zeamais (Motschulsky)]; assay: Maize weevil insecticidal test; conditions: adult weevils, percent in solution; 48 hours
Description: The compounds in Tables 1 and 2 above were tested for insecticidal activity using the following testing procedures. LC50 values, based on the results of these tests and calculated according to dosage-mortality curves, are expressed in Table 3.
Maize weevil [Sitophilus Zeamais (Motschulsky)]:
Test compounds were diluted in a 50:50 acetone:water solution. Four corn seeds [Zea mays (L.)] which had been immersed in test solutions for 2-3 seconds and allowed to dry were placed in containers together with 10 adult weevils. The containers were covered and kept at a temperature of about 25° C. Mortality was recorded after 48 hours. Test concentrations ranged from 0.01% down to that at which 50% mortalilty occurred. The LC50 values are expressed below in Table 3 under the heading "MW" in terms of percent of the test compound in solution.

Structure (SMILES)	LC50, CL [1] [%]	LC50, HF [2] [µg]	LC50, TBW, E (TBW-E) [3] [%]	LC50, MW [4] [%]
Cc1cc(N=C(OCc2ccc(F)c(Oc3ccc(Cl)cc3)c2)C(C)C)ccc1Br [Compound 407]	> 0.1	> 100	0.05	> 0.01
COc1ccc(N=C(OCc2ccc(F)c(Oc3ccc(F)cc3)c2)C(C)C)cc1Cl [Compound 408]	0.0015	< 100	0.02	> 0.01
COc1ccc(N=C(OCc2ccc(F)c(Oc3ccccc3)c2)C(C)C)cc1Cl [Compound 409]	0.0017	< 100	0.025	> 0.01
COc1ccc(N=C(OCc2ccc(F)c(Oc3ccc(Cl)cc3)c2)C(C)C)cc1Cl [Compound 410]	> 0.1	< 100	> 0.1	> 0.01
CCc1ccccc1N=C(OCc1cccc(Oc2ccc(F)cc2)c1)C(C)C [Compound 411]	> 0.1	< 100	> 0.1	> 0.01
COc1ccc(N=C(OCc2ccc(F)c(Oc3ccc(Cl)cc3)c2)C(C)C)cc1 [Compound 412]	> 0.1	< 100	> 0.1	> 0.01
CC(C)C(=Nc1ccc(F)c(I)c1)OCc1cccc(Oc2ccc(Cl)cc2)c1 [Compound 413]	0.0007	< 100	0.04	> 0.01
CC(C)C(=Nc1ccc(S(C)(=O)=O)cc1)OCc1ccc(F)c(Oc2ccc(F)cc2)c1 [Compound 414]	0.0024	< 100	> 0.1	> 0.01
C=C(C)C(=Nc1ccc(F)c(Cl)c1)OCc1ccc(F)c(Oc2ccc(Cl)cc2)c1 [Compound 415]	0.00075	< 100	0.035	> 0.01
C=C(C)C(=Nc1ccc(F)c(Cl)c1)OCc1ccc(F)c(Oc2ccccc2)c1 [Compound 416]	0.00027	< 100	0.018	> 0.01
C=C(C)C(=Nc1ccc(F)c(Cl)c1)OCc1cccc(Oc2ccccc2)c1 [Compound 417]	0.0008	< 100	0.04	> 0.01
CC(C)C(=Nc1ccc(OC(F)(F)C(F)Cl)cc1)OCc1cccc(Oc2ccccc2)c1 (stereo not shown) [Compound 418]	> 0.1	> 100	> 0.1	> 0.01
CC(C)C(=Nc1ccc(OC(F)(F)C(F)Cl)cc1)OCc1ccc(F)c(Oc2ccccc2)c1 (stereo not shown) [Compound 419]	> 0.1	> 100	> 0.1	> 0.01
CC(C)C(=Nc1ccc(OCC(F)(F)F)c(Cl)c1)OCc1cccc(Oc2ccc(F)cc2)c1 [Compound 420]	0.00075	> 100	0.05	> 0.01
CC(C)C(=Nc1ccc(OCC(F)(F)F)c(Cl)c1)OCc1cccc(Oc2ccc(Cl)cc2)c1 [Compound 421]	0.002	> 100	< 0.1	> 0.01
CC(C)C(=Nc1ccc(OCC(F)(F)F)cc1)OCc1ccc(F)c(Oc2ccccc2)c1 [Compound 422]	0.00075	< 100	0.05	> 0.01
CC(C)C(=Nc1ccc(OCC(F)(F)F)cc1)OCc1cccc(Oc2ccccc2)c1 [Compound 423]	0.002	> 100	> 0.1	> 0.01
CC(C)C(=Nc1ccc(OCC(F)(F)F)c(Cl)c1)OCc1ccc(F)c(Oc2ccccc2)c1 [Compound 424]	0.00038	> 100	0.035	> 0.01
CC(C)C(=Nc1ccc(OCC(F)(F)F)c(Cl)c1)OCc1cccc(Oc2ccccc2)c1 [Compound 425]	0.00075	> 100	> 0.1	> 0.01
